How the values were obtained:
Test in all cases: kinome screen (33PanQinase)
Assay type in all cases: biochemical
PKCζ = target: T1, PKCζ (Homo sapiens, UniProt Q05513)
T1 construct: purchased Reaction Biology Europe GmbH (formerly ProQinase)
T1 sequence (Q05513 1-592): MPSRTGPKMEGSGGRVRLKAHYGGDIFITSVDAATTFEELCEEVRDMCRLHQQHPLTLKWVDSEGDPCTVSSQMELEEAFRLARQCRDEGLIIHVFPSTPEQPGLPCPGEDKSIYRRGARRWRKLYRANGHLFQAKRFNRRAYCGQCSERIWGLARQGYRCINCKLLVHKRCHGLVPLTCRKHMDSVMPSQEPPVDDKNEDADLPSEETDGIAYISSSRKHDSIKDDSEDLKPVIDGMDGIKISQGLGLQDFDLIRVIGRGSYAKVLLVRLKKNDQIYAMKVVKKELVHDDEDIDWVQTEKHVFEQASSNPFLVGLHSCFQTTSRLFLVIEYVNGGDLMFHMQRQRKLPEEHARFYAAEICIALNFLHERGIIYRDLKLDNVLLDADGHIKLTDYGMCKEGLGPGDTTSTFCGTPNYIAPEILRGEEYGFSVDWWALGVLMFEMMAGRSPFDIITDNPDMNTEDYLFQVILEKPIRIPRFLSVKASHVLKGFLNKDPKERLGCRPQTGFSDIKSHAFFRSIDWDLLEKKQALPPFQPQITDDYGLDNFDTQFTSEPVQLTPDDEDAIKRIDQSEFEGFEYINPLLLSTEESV
Protocol: (§1) The Kinome Screening was performed by Reaction Biology Europe GmbH (http://reactionbiology.com; Freiburg i. Br., Germany).

CDK7/CycH/MAT1 = target: T2, CDK7/CycH/MAT1 (Homo sapiens, UniProt P50613)
T2 construct: purchased Reaction Biology Europe GmbH (formerly ProQinase)
T2 sequence (P50613 whole entry): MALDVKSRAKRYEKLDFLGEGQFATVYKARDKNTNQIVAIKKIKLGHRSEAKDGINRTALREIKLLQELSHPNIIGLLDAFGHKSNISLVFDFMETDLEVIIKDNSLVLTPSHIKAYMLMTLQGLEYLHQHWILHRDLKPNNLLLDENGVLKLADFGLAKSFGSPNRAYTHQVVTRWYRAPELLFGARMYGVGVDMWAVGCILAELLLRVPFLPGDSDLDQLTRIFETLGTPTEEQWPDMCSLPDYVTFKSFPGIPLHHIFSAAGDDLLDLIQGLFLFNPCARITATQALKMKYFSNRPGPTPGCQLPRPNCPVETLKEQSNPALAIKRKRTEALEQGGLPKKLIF
T2 sequence (P51946 whole entry partner): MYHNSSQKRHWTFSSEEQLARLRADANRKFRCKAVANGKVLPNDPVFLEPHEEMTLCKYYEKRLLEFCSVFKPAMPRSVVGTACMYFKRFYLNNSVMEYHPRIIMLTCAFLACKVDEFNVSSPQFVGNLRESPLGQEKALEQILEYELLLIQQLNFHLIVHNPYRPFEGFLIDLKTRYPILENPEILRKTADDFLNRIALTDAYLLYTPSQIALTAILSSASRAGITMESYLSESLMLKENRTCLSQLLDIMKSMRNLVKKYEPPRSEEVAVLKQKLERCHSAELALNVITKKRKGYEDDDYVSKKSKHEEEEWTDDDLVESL
T2 sequence (P51948 whole entry partner): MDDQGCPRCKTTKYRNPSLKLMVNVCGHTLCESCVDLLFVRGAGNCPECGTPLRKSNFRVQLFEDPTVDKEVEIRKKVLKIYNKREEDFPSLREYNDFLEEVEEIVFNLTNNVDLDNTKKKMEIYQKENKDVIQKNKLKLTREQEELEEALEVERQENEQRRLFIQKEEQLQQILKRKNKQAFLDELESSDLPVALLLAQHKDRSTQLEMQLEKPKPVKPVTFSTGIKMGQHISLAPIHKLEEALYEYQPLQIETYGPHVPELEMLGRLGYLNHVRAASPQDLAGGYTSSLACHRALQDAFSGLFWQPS
Protocol: as §1

ACVR1 = target: T3, ACVR1 (Homo sapiens, UniProt Q04771)
T3 construct: purchased Reaction Biology Europe GmbH (formerly ProQinase)
T3 sequence (Q04771 21-509): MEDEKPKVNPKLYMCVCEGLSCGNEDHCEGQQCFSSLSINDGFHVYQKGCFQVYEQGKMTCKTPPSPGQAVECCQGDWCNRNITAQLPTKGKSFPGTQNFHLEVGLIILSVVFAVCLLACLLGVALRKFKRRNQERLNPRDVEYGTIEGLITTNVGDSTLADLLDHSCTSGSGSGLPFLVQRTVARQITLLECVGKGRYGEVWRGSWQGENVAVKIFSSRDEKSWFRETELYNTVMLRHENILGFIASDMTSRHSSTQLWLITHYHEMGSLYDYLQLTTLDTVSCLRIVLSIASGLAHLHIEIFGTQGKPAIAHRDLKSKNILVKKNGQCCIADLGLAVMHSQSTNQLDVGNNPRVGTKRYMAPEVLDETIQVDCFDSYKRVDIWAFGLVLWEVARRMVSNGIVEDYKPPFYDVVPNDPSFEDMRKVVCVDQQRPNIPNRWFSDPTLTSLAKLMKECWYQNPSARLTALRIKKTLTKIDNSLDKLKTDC
Protocol: as §1

AuroraB = target: T4, AuroraB (Homo sapiens, UniProt Q96GD4)
T4 construct: purchased Reaction Biology Europe GmbH (formerly ProQinase)
T4 sequence (Q96GD4 whole entry): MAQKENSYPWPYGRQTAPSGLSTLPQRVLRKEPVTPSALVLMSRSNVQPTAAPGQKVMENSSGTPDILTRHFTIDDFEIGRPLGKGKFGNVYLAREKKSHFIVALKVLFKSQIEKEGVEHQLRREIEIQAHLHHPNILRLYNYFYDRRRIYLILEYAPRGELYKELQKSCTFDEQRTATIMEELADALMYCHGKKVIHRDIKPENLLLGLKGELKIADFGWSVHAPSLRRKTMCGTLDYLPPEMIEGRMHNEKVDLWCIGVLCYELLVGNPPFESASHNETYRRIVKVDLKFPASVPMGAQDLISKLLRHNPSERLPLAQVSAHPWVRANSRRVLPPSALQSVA
Protocol: as §1

EPHB3 = target: T5, EPHB3 (Homo sapiens, UniProt P54753)
T5 construct: purchased Reaction Biology Europe GmbH (formerly ProQinase)
T5 sequence (P54753 34-998): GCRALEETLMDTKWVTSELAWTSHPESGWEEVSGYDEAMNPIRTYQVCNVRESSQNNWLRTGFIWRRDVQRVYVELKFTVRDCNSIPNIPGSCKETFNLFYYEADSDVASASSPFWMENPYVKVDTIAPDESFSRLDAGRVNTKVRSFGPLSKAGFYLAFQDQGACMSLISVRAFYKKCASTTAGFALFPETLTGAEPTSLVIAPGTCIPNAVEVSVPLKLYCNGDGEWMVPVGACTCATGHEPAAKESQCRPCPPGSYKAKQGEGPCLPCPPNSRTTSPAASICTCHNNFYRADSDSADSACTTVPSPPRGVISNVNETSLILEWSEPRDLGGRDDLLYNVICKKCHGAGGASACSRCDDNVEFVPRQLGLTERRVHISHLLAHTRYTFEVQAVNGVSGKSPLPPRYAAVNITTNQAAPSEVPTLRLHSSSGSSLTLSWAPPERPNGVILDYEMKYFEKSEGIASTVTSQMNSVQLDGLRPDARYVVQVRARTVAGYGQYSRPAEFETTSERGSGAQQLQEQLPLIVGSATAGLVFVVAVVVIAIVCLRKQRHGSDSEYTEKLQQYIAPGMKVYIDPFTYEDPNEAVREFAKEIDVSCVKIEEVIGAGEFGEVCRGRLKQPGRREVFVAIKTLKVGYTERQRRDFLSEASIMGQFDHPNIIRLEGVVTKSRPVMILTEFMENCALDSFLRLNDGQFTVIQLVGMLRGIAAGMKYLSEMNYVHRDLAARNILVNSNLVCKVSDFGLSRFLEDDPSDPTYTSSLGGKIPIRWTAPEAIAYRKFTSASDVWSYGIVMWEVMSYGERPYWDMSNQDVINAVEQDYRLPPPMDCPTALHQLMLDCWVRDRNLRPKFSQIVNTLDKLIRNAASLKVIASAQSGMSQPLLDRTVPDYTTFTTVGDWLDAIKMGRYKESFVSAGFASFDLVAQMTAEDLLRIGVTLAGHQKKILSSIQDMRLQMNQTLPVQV
Protocol: as §1

SMILES | residual kinase activity (PKCζ; 0.3 µM) | residual kinase activity (PKCζ; 3 µM) | residual kinase activity (CDK7/CycH/MAT1; 0.3 µM) | residual kinase activity (CDK7/CycH/MAT1; 3 µM) | residual kinase activity (ACVR1; 0.3 µM) | residual kinase activity (ACVR1; 3 µM) | residual kinase activity (AuroraB; 0.3 µM) | residual kinase activity (AuroraB; 3 µM) | residual kinase activity (EPHB3; 0.3 µM) | residual kinase activity (EPHB3; 3 µM) | residual kinase activity (PKCζ; 0.03 µM) | residual kinase activity (CDK7/CycH/MAT1; 0.03 µM) | residual kinase activity (ACVR1; 0.03 µM) | residual kinase activity (AuroraB; 0.03 µM) | residual kinase activity (EPHB3; 0.03 µM)
c1ccc(CNc2cc(-c3c[nH]c4ncccc34)ccn2)cc1 [meriolin 36] | 85 % of control | 29 % of control | 7 % of control | 2 % of control | 24 % of control | 1 % of control | 67 % of control | 26 % of control | 91 % of control | 67 % of control |  |  |  |  | 
COc1ccnc2[nH]cc(-c3cc(N)nc(N)c3)c12 [meriolin 16] | 78 % of control |  | 6 % of control |  | 72 % of control |  | 61 % of control |  | 99 % of control |  | 97 % of control | 44 % of control | 89 % of control | 85 % of control | 101 % of control

From PMC11167047 (Cell Death Discovery, 2024)
